According to patent US20110306597A1, “Nicotinamide Derivatives” (priority 2008, published 2011):

Target: human recombinant H-PGDS (Homo sapiens, UniProt O60760)
Test: Fluorescence Intensity h-PGDS TBA Enzyme Assay
Assay type: biochemical
Conditions: 1:175,000 human recombinant H-PGDS, highest inhibitor concentration typically 1 μM
Procedure, shortened: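 Recombinant human H-PGDS preincubated 10 min at room temperature with inhibitor in 100 mM Tris pH 8.0, 100 μM MgCl2, 2.5 mM glutathione, 0.5% DMSO; 5.0 μM PGH2 added, stopped after 42 s with FeCl2/citric acid. Remaining PGH2 measured as MDA–TBA fluorescence (ex 530/em 565 nm); IC50 by 4-parameter fit, 11 concentrations.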

Sequence of human recombinant H-PGDS (O60760 whole entry): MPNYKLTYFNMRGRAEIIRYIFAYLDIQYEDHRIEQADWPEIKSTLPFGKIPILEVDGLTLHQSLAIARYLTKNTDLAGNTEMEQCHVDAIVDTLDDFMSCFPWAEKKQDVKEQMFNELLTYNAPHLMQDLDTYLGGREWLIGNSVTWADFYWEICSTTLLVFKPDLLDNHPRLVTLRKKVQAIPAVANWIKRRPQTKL

IC50	Compound
25.4 nM	O=C(NCCN1CCCC1=O)c1ccc(-c2ccccc2)nc1 [Example 351, N-[2-(2-Oxopyrrolidin-1-yl)ethyl]-6-phenylnicotinamide]
352 nM	COC(=O)CCNC(=O)c1ccc(-c2cccc(OC)c2)nc1 [Example 335, Methyl N-{[6-(3-methoxyphenyl)pyridin-3-yl]carbonyl}-beta-alaninate]
42.3 nM	CCN1CCC[C@@H]1CNC(=O)c1ccc(-c2cccc(F)c2)nc1 [Example 74, N-{[(2R)-1-Ethylpyrrolidin-2-yl]methyl}-6-(3-fluorophenyl) nicotinamide]
758 nM	COC(=O)CCNC(=O)c1ccc(-c2ccc(F)cc2)nc1 [Example 494, Methyl N-{[6-(4-fluorophenyl)pyridin-3-yl]carbonyl}-beta-alaninate]
125 nM	COc1ccc(C(CNC(=O)c2ccc(-c3cccc(F)c3)nc2)N(C)C)cc1 (centres unmarked) [Example 204, N-[2-(Dimethylamino)-2-(4-methoxyphenyl)ethyl]-6-(3-fluorophenyl)nicotinamide]
87.1 nM	O=C(NCC1CCCN(C2CCOCC2)C1)c1ccc(-c2cccc(F)c2)nc1 (centres unmarked) [Example 110, 6-(3-Fluorophenyl)-N-{[1-(tetrahydro-2H-pyran-4-yl)piperidin-3-yl]methyl}nicotinamide]
≥ 1000 nM	O=C(NCCN1CCN(Cc2ccccc2)CC1)c1ccc(-c2ccc(F)cc2)nc1 [Example 476, N-[2-(4-Benzylpiperazin-1-yl)ethyl]-6-(4-fluorophenyl)nicotinamide]
27.6 nM	O=C(NCC1CCCCO1)c1ccc(-c2ccccc2)nc1 (centres unmarked) [Example 399, 6-Phenyl-N-(tetrahydro-2H-pyran-2-ylmethyl) nicotinamide]
3.51 nM	O=C(NC1CCCCNC1=O)c1ccc(-c2cccc(F)c2)nc1 (centres unmarked) [Example 136, 6-(3-Fluorophenyl)-N-(2-oxoazepan-3-yl)nicotinamide]
≥ 1000 nM	COc1cccc(-c2ccc(C(=O)NCCN3CCCCC3)cn2)c1 [Example 511, 6-(3-methoxyphenyl)-N-(2-piperidin-1-ylethyl)nicotinamide]
14.4 nM	O=C(NCCSCCO)c1ccc(-c2cccc(F)c2)nc1 [Example 440, 6-(3-Fluorophenyl)-N-{2-[(2-hydroxyethyl)thio]ethyl} nicotinamide]
137 nM	COC(C)(C)CNC(=O)c1ccc(-c2cccc(C)c2)nc1 [Example 232, N-(2-Methoxy-2-methylpropyl)-6-(3-methylphenyl)nicotinamide]
234 nM	CCOC(=O)C(CNC(=O)c1ccc(-c2cccc(OC)c2)nc1)c1c(F)cccc1F (centres unmarked) [Example 331, Ethyl 2-(2,6-difluorophenyl)-3-({[6-(3-methoxyphenyl)pyridin-3-yl]carbonyl}amino) propanoate]
5.33 nM	O=C(NCCc1ccc(O)cc1)c1ccc(-c2cccc(F)c2)nc1 [Example 446, 6-(3-Fluorophenyl)-N-[2-(4-hydroxyphenyl)ethyl] nicotinamide]
6.8 nM	O=C(NCCCN1CCCC1=O)c1ccc(-c2ccccc2)nc1 [Example 350, N-[3-(2-Oxopyrrolidin-1-yl)propyl]-6-phenylnicotinamide]
178 nM	COc1cccc(-c2ccc(C(=O)NCc3ccc(C)cc3)cn2)c1 [Example 484, 6-(3-Methoxyphenyl)-N-(4-methylbenzyl)nicotinamide]
777 nM	CC(=O)N1CCC(CNC(=O)c2ccc(-c3ccc(F)cc3)nc2)CC1 [Example 257, N-[(1-Acetylpiperidin-4-yl)methyl]-6-(4-fluorophenyl)nicotinamide]
13.8 nM	CCCOCCCNC(=O)c1ccc(-c2cccc(F)c2)nc1 [Example 22, 6-(3-Fluorophenyl)-N-(3-propoxypropyl)nicotinamide]

Further lines, the compound ahead of its results:

Compound	IC50
O=C(NCC1COc2ccccc2C1)c1ccc(-c2cccc(F)c2)nc1 (centres unmarked) [Example 528, N-(3,4-Dihydro-2H-chromen-3-ylmethyl)-6-(3-fluorophenyl)nicotinamide]	6.45 nM
CCOC(=O)CC(NC(=O)c1ccc(-c2cccc(F)c2)nc1)c1ccccc1Cl (centres unmarked) [Example 411, Ethyl 3-(2-chlorophenyl)-3-({[6-(3-fluorophenyl)pyridin-3-yl]carbonyl}amino)propanoate]	127 nM
O=C(NCCc1nnc(-c2ccc(F)cc2)o1)c1ccc(-c2cccc(F)c2)nc1 [Example 200, 6-(3-Fluorophenyl)-N-{2-[5-(4-fluorophenyl)-1,3,4-oxadiazol-2-yl]ethyl}nicotinamide]	447 nM
O=C(NCc1cccc(F)c1)c1ccc(-c2cccc(F)c2)nc1 [Example 405, N-(3-Fluorobenzyl)-6-(3-fluorophenyl)nicotinamide]	211 nM
O=C(NC[C@@H]1COc2ccccc2C1)c1ccc(-c2cccc(F)c2)nc1 [Example 572]	0.886 nM
O=C(NC(c1cccc(Cl)c1)c1nn[nH]n1)c1ccc(-c2cccc(F)c2)nc1 (centres unmarked) [Example 123, N-[(3-Chlorophenyl)(2H-tetrazol-5-yl)methyl]-6-(3-fluorophenyl)nicotinamide]	15.6 nM
O=C(NCCOCc1nc2ccccc2[nH]1)c1ccc(-c2cccc(F)c2)nc1 [Example 76, N-[2-(1H-Benzimidazol-2-ylmethoxy)ethyl]-6-(3-fluorophenyl)nicotinamide]	34.7 nM
O=C(NC(c1ccc(F)c(F)c1)c1nn[nH]n1)c1ccc(-c2cccc(F)c2)nc1 (centres unmarked) [Example 59, N-[(3,4-Difluorophenyl)(2H-tetrazol-5-yl)methyl]-6-(3-fluorophenyl)nicotinamide]	10.6 nM
CCOC(=O)Cc1ccc(CNC(=O)c2ccc(-c3cccc(F)c3)nc2)cc1 [Example 205, Ethyl {4-[({[6-(3-fluorophenyl)pyridin-3-yl]carbonyl}amino)methyl]phenyl}acetate]	29.9 nM
O=C(NCc1ccccc1F)c1ccc(-c2ccccc2)nc1 [Example 380, N-(2-Fluorobenzyl)-6-phenylnicotinamide]	2.1 nM
CC(C)[C@H](N)C(=O)NC(=O)c1ccc(-c2ccccc2)nc1 [Example 512, 6-Phenyl-N-L-valylnicotinamide]	359 nM
Cc1noc([C@H]2CC[C@H](CNC(=O)c3ccc(-c4cccc(F)c4)nc3)CC2)n1 [Example 11, 6-(3-Fluorophenyl)-N-{[trans-4-(3-methyl-1,2,4-oxadiazol-5-yl)cyclohexyl]methyl} nicotinamide]	18.9 nM
CC(O)CNC(=O)c1ccc(-c2ccc(F)cc2)nc1 (centres unmarked) [Example 262, 6-(4-Fluorophenyl)-N-(2-hydroxypropyl)nicotinamide]	992 nM
O=C(NCC1CCCN(c2ccccn2)C1)c1ccc(-c2cc(F)cc(F)c2)nc1 (centres unmarked) [Example 570, 6-(3,5-Difluorophenyl)-N-[(1-pyridin-2-ylpiperidin-3-yl)methyl]nicotinamide]	32.5 nM
CCCOCCCNC(=O)c1cnc(-c2cccc(F)c2)c(Cl)c1 [Example 550, 5-Chloro-6-(3-fluorophenyl)-N-(3-propoxypropyl)nicotinamide]	30.4 nM
Cc1cccc(-c2ccc(C(=O)NCc3ccc(Br)cc3)cn2)c1 [Example 489, N-(4-Bromobenzyl)-6-(3-methylphenyl)nicotinamide]	214 nM
Cc1cccnc1CC(C)NC(=O)c1ccc(-c2cccc(F)c2)nc1 (centres unmarked) [Example 3, 6-(3-Fluorophenyl)-N-[1-methyl-2-(3-methylpyridin-2-yl)ethyl]nicotinamide]	2.89 nM
CN(C)CC(C)(C)CNC(=O)c1ccc(-c2ccccc2)nc1 [Example 352, N-[3-(Dimethylamino)-2,2-dimethylpropyl]-6-phenylnicotinamide]	458 nM
O=C(NCCCNc1ccccn1)c1ccc(-c2cccc(F)c2)nc1 [Example 197, 6-(3-Fluorophenyl)-N-[3-(pyridin-2-ylamino)propyl]nicotinamide]	34 nM
CCOC(=O)CC(NC(=O)c1ccc(-c2ccccc2)nc1)c1ccc(Cl)cc1 (centres unmarked) [Example 401, Ethyl 3-(4-chlorophenyl)-3-{[(6-phenylpyridin-3-yl)carbonyl]amino}propanoate]	31.1 nM
Cc1c(C(C)NC(=O)c2ccc(-c3cccc(F)c3)nc2)cnn1C (centres unmarked) [Example 125, N-[1-(1,5-Dimethyl-1H-pyrazol-4-yl)ethyl]-6-(3-fluorophenyl)nicotinamide]	23.9 nM
O=C(NC(CCc1ccccc1)c1nn[nH]n1)c1ccc(-c2cccc(F)c2)nc1 (centres unmarked) [Example 62, 6-(3-Fluorophenyl)-N-[3-phenyl-1-(2H-tetrazol-5-yl)propyl]nicotinamide]	17.2 nM
O=C(NCC1CCCCO1)c1ccc(-c2ccc(F)cc2)nc1 (centres unmarked) [Example 498, 6-(4-Fluorophenyl)-N-(tetrahydro-2H-pyran-2-ylmethyl)nicotinamide]	≥ 1000 nM
COc1ccc(NC(=O)c2ccc(-c3ccccc3)nc2)cc1OC [Example 515, N-(3,4-Dimethoxyphenyl)-6-phenylnicotinamide]	0.95 nM
O=C(NCc1nc(-c2ccccc2)no1)c1ccc(-c2cccc(F)c2)nc1 [Example 133, 6-(3-Fluorophenyl)-N-[(3-phenyl-1,2,4-oxadiazol-5-yl)methyl]nicotinamide]	59.2 nM
CCC(C)NC(=O)c1ccc(-c2ccc(F)cc2)nc1 (centres unmarked) [Example 492, N-sec-Butyl-6-(4-fluorophenyl)nicotinamide]	≥ 1000 nM
CCOC(=O)C1(NC(=O)c2ccc(-c3cccc(F)c3)nc2)CCOCC1 [Example 159, Ethyl 4-({[6-(3-fluorophenyl)pyridin-3-yl]carbonyl}amino)tetrahydro-2H-pyran-4-carboxylate]	391 nM
COC(=O)CNC(=O)c1ccc(-c2ccc(F)cc2)nc1 [Example 500, Methyl N-{[6-(4-fluorophenyl)pyridin-3-yl]carbonyl}glycinate]	≥ 1000 nM
Cc1cccc(-c2ccc(C(=O)NCc3ccccc3C)cn2)c1 [Example 226, N-(2-Methylbenzyl)-6-(3-methylphenyl)nicotinamide]	12.4 nM
